Experimental data published in patent US20250296971A1, “GASTRIC INHIBITORY PEPTIDE RECEPTOR LIGANDS” (priority 2021, published 2025).
*1 amine or outer side, *2 acyl side, *3 side chain or, on linkers, in order; H or OH if unused. Where a SMILES comes first, the peptide text is derived from it. Bridges are numbered along the chain shown (N, C = ends). [ ]: non-standard residue; d: D form. Trp(5-Cl) = N[C@@H](Cc1c[nH]c2ccc(Cl)cc12)C(=O)O; Trp(5-OH) = N[C@@H](Cc1c[nH]c2ccc(O)cc12)C(=O)O; Pyridine(2,6-diCH2) = c1cc(C[*:1])nc(C[*:2])c1; Trp(7-F) = N[C@@H](Cc1c[nH]c2c(F)cccc12)C(=O)O; X22 = O=C([C@H](Cc1cccc(Cl)c1Cl)N[*:1])[*:2]; Hyp = O=C(O)[C@@H]1C[C@@H](O)CN1; Thz = O=C(O)[C@@H]1CSCN1; Thp = NC1(C(=O)O)CCOCC1

Target: T1, GIPR (CHO-K1-hGIPR cells) (Homo sapiens, UniProt P48546)
T1 construct: host or cells: CHO-K1
T1 sequence (P48546 22-466): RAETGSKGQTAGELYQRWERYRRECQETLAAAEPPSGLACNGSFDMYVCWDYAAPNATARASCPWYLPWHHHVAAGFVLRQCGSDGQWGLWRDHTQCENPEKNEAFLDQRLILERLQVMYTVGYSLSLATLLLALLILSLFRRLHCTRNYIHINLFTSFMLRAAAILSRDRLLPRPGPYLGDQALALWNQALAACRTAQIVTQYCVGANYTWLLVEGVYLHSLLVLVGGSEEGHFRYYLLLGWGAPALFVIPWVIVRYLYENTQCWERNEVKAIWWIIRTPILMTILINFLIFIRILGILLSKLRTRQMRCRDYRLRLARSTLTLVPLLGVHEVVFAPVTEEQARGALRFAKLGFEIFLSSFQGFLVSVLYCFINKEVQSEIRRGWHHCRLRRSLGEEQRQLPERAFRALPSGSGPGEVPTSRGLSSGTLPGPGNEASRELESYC
Assay: FACS binding assay
Conditions: competition with 20 nM GIP-057, 4° C., 1 hour, read-out: pIC50 Category (converted)
Summary of the method: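 Median fluorescence in the APC channel, measured on washed CHO-K1 cells overexpressing human GIPR, was fitted by four-parameter logistic regression against peptide concentration to yield EC50 or IC50 values. Secondary labelling used APC-streptavidin (1 μg/mL, 30 min, ice).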

## CC[C@H](C)[C@@H]1NC(=O)[C@H](CC(C)C)NC(=O)C2(CCOCC2)NC(=O)[C@@H](NC(=O)[C@@H](NC(=O)[C@H](CCC(=O)O)NC(=O)[C@@H]2C[C@@H](O)CN2C(=O)[C@H](Cc2c[nH]c3ccc(Cl)cc23)NC(=O)[C@H](Cc2c[nH]c3ccccc23)NC(=O)[C@H](CC(=O)O)NC(C)=O)C(C)C)CSCc2cccc(n2)CSC[C@@H](C(N)=O)NC1=O [GIP-219, Ac-Asp-Trp-5Clw-Hyp-Glu-Val-[Cys(2Lut)-Thp-Leu-Ile-Cys]-NH2] (Ac-DW[Trp(5-Cl)][Hyp]EVC[Thp]LIC-NH2; linker 7-11 via Pyridine(2,6-diCH2))
  IC50: < 10 nM

## CC[C@H](C)[C@@H]1NC(=O)[C@H](CC(C)C)NC(=O)C2(CCOCC2)NC(=O)[C@@H](NC(=O)[C@@H](CC(C)C)NC(=O)[C@H](CCC(=O)O)NC(=O)[C@@H]2C[C@@H](O)CN2C(=O)[C@H](Cc2c[nH]c3ccc(Cl)cc23)NC(=O)[C@H](Cc2c[nH]c3ccc(O)cc23)NC(=O)[C@H](CC(=O)O)NC(C)=O)CSCc2cccc(n2)CSC[C@@H](C(N)=O)NC1=O [GIP-220, Ac-Asp-Hyw-5Clw-Hyp-Glu-leu-[Cys(2Lut)-Thp-Leu-Ile-Cys]-NH2] (Ac-D[Trp(5-OH)][Trp(5-Cl)][Hyp]E[dL]C[Thp]LIC-NH2; linker 7-11 via Pyridine(2,6-diCH2))
  IC50: < 10 nM

## CC[C@H](C)[C@@H]1NC(=O)[C@H](CC(C)C)NC(=O)C2(CCOCC2)NC(=O)[C@@H](NC(=O)[C@@H](CC(C)C)NC(=O)[C@H](CCC(=O)O)NC(=O)[C@@H]2C[C@@H](O)CN2C(=O)[C@H](Cc2c[nH]c3ccc(Cl)cc23)NC(=O)[C@H](Cc2c[nH]c3c(F)cccc23)NC(=O)[C@H](CC(=O)O)NC(C)=O)CSCc2cccc(n2)CSC[C@@H](C(N)=O)NC1=O [GIP-221, Ac-Asp-7Fw-5Clw-Hyp-Glu-leu-[Cys(2Lut)-Thp-Leu-Ile-Cys]-NH2] (Ac-D[Trp(7-F)][Trp(5-Cl)][Hyp]E[dL]C[Thp]LIC-NH2; linker 7-11 via Pyridine(2,6-diCH2))
  IC50: < 10 nM

## CC[C@H](C)[C@@H]1NC(=O)[C@H](CC(C)C)NC(=O)C2(CCOCC2)NC(=O)[C@@H](NC(=O)[C@@H](CC(C)C)NC(=O)[C@H](CCC(=O)O)NC(=O)[C@@H]2CSCN2C(=O)[C@H](Cc2c[nH]c3ccc(Cl)cc23)NC(=O)[C@H](Cc2c[nH]c3ccccc23)NC(=O)[C@H](CC(=O)O)NC(C)=O)CSCc2cccc(n2)CSC[C@@H](C(N)=O)NC1=O [GIP-222, Ac-Asp-Trp-5Clw-Eaz-Glu-leu-[Cys(2Lut)-Thp-Leu-Ile-Cys]-NH2] (Ac-DW[Trp(5-Cl)][Thz]E[dL]C[Thp]LIC-NH2; linker 7-11 via Pyridine(2,6-diCH2))
  IC50: < 10 nM

## CC[C@H](C)[C@@H]1NC(=O)[C@H](CC(C)C)NC(=O)C2(CCOCC2)NC(=O)[C@@H](NC(=O)[C@H](CC(C)C)NC(=O)[C@@H](CCC(=O)O)NC(=O)[C@@H]2C[C@@H](O)CN2C(=O)[C@H](Cc2c[nH]c3ccc(Cl)cc23)NC(=O)[C@H](Cc2c[nH]c3ccccc23)NC(=O)[C@H](CC(=O)O)NC(C)=O)CSCc2cccc(n2)CSC[C@@H](C(N)=O)NC1=O [GIP-223, Ac-Asp-Trp-5Clw-Eaz-Glu-leu-[Cys(2Lut)-Thp-Leu-Ile-Cys]-NH2] (Ac-DW[Trp(5-Cl)][Hyp][dE]LC[Thp]LIC-NH2; linker 7-11 via Pyridine(2,6-diCH2))
  IC50: < 10 nM

## CC[C@H](C)[C@@H]1NC(=O)[C@H](CC(C)C)NC(=O)C2(CCOCC2)NC(=O)[C@@H](NC(=O)[C@@H](CC(C)C)NC(=O)[C@H](CCC(=O)O)NC(=O)[C@@H]2C[C@@H](O)CN2C(=O)[C@H](Cc2c[nH]c3ccc(Cl)cc23)NC(=O)[C@H](Cc2ccccc2)NC(=O)[C@H](CC(=O)O)NC(C)=O)CSCc2cccc(n2)CSC[C@@H](C(N)=O)NC1=O [GIP-224, Ac-Asp-Phe-5Clw-Hyp-Glu-leu-[Cys(2Lut)-Thp-Leu-Ile-Cys]-NH2] (Ac-DF[Trp(5-Cl)][Hyp]E[dL]C[Thp]LIC-NH2; linker 7-11 via Pyridine(2,6-diCH2))
  IC50: < 10 nM

## CC[C@H](C)[C@@H]1NC(=O)[C@H](CC(C)C)NC(=O)C2(CCOCC2)NC(=O)[C@@H](NC(=O)[C@@H](CC(C)C)NC(=O)[C@H](CCC(=O)O)NC(=O)[C@@H]2C[C@@H](O)CN2C(=O)[C@H](Cc2c[nH]c3ccc(Cl)cc23)NC(=O)[C@H](Cc2cccc(Cl)c2Cl)NC(=O)[C@H](CC(=O)O)NC(C)=O)CSCc2cccc(n2)CSC[C@@H](C(N)=O)NC1=O [GIP-226, Ac-Asp-Egp-5Clw-Hyp-Glu-leu-[Cys(2Lut)-Thp-Leu-Ile-Cys]-NH2] (Ac-D[X22][Trp(5-Cl)][Hyp]E[dL]C[Thp]LIC-NH2; linker 7-11 via Pyridine(2,6-diCH2))
  IC50: < 10 nM

## CC[C@H](C)[C@@H]1NC(=O)[C@H](CC(C)C)NC(=O)C2(CCOCC2)NC(=O)[C@@H](NC(=O)[C@@H](CC(C)C)NC(=O)[C@H](CCC(=O)O)NC(=O)[C@@H]2C[C@@H](O)CN2C(=O)[C@H](Cc2c[nH]c3c(F)cccc23)NC(=O)[C@H](Cc2c[nH]c3ccccc23)NC(=O)[C@H](CC(=O)O)NC(C)=O)CSCc2cccc(n2)CSC[C@@H](C(N)=O)NC1=O [GIP-227, Ac-Asp-Trp-7Fw-Hyp-Glu-leu-[Cys(2Lut)-Thp-Leu-Ile-Cys]-NH2] (Ac-DW[Trp(7-F)][Hyp]E[dL]C[Thp]LIC-NH2; linker 7-11 via Pyridine(2,6-diCH2))
  IC50: < 10 nM

## CC[C@H](C)[C@@H]1NC(=O)[C@H](CC(C)C)NC(=O)[C@H](Cc2ccccc2)NC(=O)[C@@H](NC(=O)[C@@H](CC(C)C)NC(=O)[C@H](CCC(=O)O)NC(=O)[C@@H]2C[C@@H](O)CN2C(=O)[C@H](Cc2c[nH]c3ccc(Cl)cc23)NC(=O)[C@H](Cc2c[nH]c3ccccc23)NC(=O)[C@H](CC(=O)O)NC(C)=O)CSCc2cccc(n2)CSC[C@@H](C(N)=O)NC1=O [GIP-228, Ac-Asp-Trp-5Clw-Hyp-Glu-leu-[Cys(2Lut)-Phe-Leu-Ile-Cys]-NH2] (Ac-DW[Trp(5-Cl)][Hyp]E[dL]CFLIC-NH2; linker 7-11 via Pyridine(2,6-diCH2))
  IC50: < 10 nM

## CC[C@H](C)[C@@H]1NC(=O)[C@H]([C@@H](C)CC)NC(=O)C2(CCOCC2)NC(=O)[C@@H](NC(=O)[C@@H](CC(C)C)NC(=O)[C@H](CCC(=O)O)NC(=O)[C@@H]2C[C@@H](O)CN2C(=O)[C@H](Cc2c[nH]c3ccc(Cl)cc23)NC(=O)[C@H](Cc2c[nH]c3ccccc23)NC(=O)[C@H](CC(=O)O)NC(C)=O)CSCc2cccc(n2)CSC[C@@H](C(N)=O)NC1=O [GIP-229, Ac-Asp-Trp-5Clw-Hyp-Glu-leu-[Cys(2Lut)-Thp-Ile-Ile-Cys]-NH2] (Ac-DW[Trp(5-Cl)][Hyp]E[dL]C[Thp]IIC-NH2; linker 7-11 via Pyridine(2,6-diCH2))
  IC50: < 10 nM

## CC[C@H](C)[C@@H]1NC(=O)[C@H](CCCNC(=N)N)NC(=O)C2(CCOCC2)NC(=O)[C@@H](NC(=O)[C@@H](CC(C)C)NC(=O)[C@H](CCC(=O)O)NC(=O)[C@@H]2C[C@@H](O)CN2C(=O)[C@H](Cc2c[nH]c3ccc(Cl)cc23)NC(=O)[C@H](Cc2c[nH]c3ccccc23)NC(=O)[C@H](CC(=O)O)NC(C)=O)CSCc2cccc(n2)CSC[C@@H](C(N)=O)NC1=O [GIP-230, Ac-Asp-Trp-5Clw-Hyp-Glu-leu-[Cys(2Lut)-Thp-Arg-Ile-Cys]-NH2] (Ac-DW[Trp(5-Cl)][Hyp]E[dL]C[Thp]RIC-NH2; linker 7-11 via Pyridine(2,6-diCH2))
  IC50: < 10 nM

## CC[C@H](C)[C@@H]1NC(=O)[C@H](CCC(=O)O)NC(=O)C2(CCOCC2)NC(=O)[C@@H](NC(=O)[C@@H](CC(C)C)NC(=O)[C@H](CCC(=O)O)NC(=O)[C@@H]2C[C@@H](O)CN2C(=O)[C@H](Cc2c[nH]c3ccc(Cl)cc23)NC(=O)[C@H](Cc2c[nH]c3ccccc23)NC(=O)[C@H](CC(=O)O)NC(C)=O)CSCc2cccc(n2)CSC[C@@H](C(N)=O)NC1=O [GIP-231, Ac-Asp-Trp-5Clw-Hyp-Glu-leu-[Cys(2Lut)-Thp-Glu-Ile-Cys]-NH2] (Ac-DW[Trp(5-Cl)][Hyp]E[dL]C[Thp]EIC-NH2; linker 7-11 via Pyridine(2,6-diCH2))
  IC50: < 10 nM

## CC[C@H](C)[C@@H]1NC(=O)[C@H](Cc2ccccc2)NC(=O)C2(CCOCC2)NC(=O)[C@@H](NC(=O)[C@@H](CC(C)C)NC(=O)[C@H](CCC(=O)O)NC(=O)[C@@H]2C[C@@H](O)CN2C(=O)[C@H](Cc2c[nH]c3ccc(Cl)cc23)NC(=O)[C@H](Cc2c[nH]c3ccccc23)NC(=O)[C@H](CC(=O)O)NC(C)=O)CSCc2cccc(n2)CSC[C@@H](C(N)=O)NC1=O [GIP-232, Ac-Asp-Trp-5Clw-Hyp-Glu-leu-[Cys(2Lut)-Thp-Phe-Ile-Cys]-NH2] (Ac-DW[Trp(5-Cl)][Hyp]E[dL]C[Thp]FIC-NH2; linker 7-11 via Pyridine(2,6-diCH2))
  IC50: < 10 nM

## CC[C@H](C)[C@@H]1NC(=O)[C@H](Cc2c[nH]c3ccccc23)NC(=O)C2(CCOCC2)NC(=O)[C@@H](NC(=O)[C@@H](CC(C)C)NC(=O)[C@H](CCC(=O)O)NC(=O)[C@@H]2C[C@@H](O)CN2C(=O)[C@H](Cc2c[nH]c3ccc(Cl)cc23)NC(=O)[C@H](Cc2c[nH]c3ccccc23)NC(=O)[C@H](CC(=O)O)NC(C)=O)CSCc2cccc(n2)CSC[C@@H](C(N)=O)NC1=O [GIP-233, Ac-Asp-Trp-5Clw-Hyp-Glu-leu-[Cys(2Lut)-Thp-Trp-Ile-Cys]-NH2] (Ac-DW[Trp(5-Cl)][Hyp]E[dL]C[Thp]WIC-NH2; linker 7-11 via Pyridine(2,6-diCH2))
  IC50: < 10 nM
